For orientation: Ki means a dissociation constant, usually derived from enzyme kinetics or from competition with a known ligand. Higher therefore signals lower affinity.

These results are taken from patent US10501461B2, “Tyrosine amide derivatives as Rho-kinase inhibitors” (CHIESI FARMACEUTICI S.P.A., priority 2017, dated 2019).

One experiment concerns the target Rho kinase 2 (ROCK-II) (Homo sapiens, UniProt O75116). In words: In vitro Rho kinase inhibitory activity assay (ADP-Glo), Rho kinase 2. As to conditions: 10 μM ATP, 25° C., expressed as range of activity. The class given is biochemical. The gist of the method: (§1)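 First, compound was incubated with either Rho kinase isoform for 30 mins at 25 °C; next, ATP was added to 10 μM final with 2.5 μM Myelin Basic Protein substrate; after 1 hour, ADP formed was detected by ADP-Glo luminescence. Dose-response data yielded IC50, converted to Ki using Cheng-Prusoff.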
(ADP-Glo turns the ADP formed in a reaction into a luminescent signal.)

The target in a further experiment is Rho kinase 1 (ROCK-I) (Homo sapiens, UniProt Q13464). In words: In vitro Rho kinase inhibitory activity assay (ADP-Glo), Rho kinase 1. It is filed as biochemical. As to conditions: 10 μM ATP, 25° C., expressed as range of activity. The gist of the method: as §1
Chain of Rho kinase 1 (ROCK-I) (Q13464 whole entry): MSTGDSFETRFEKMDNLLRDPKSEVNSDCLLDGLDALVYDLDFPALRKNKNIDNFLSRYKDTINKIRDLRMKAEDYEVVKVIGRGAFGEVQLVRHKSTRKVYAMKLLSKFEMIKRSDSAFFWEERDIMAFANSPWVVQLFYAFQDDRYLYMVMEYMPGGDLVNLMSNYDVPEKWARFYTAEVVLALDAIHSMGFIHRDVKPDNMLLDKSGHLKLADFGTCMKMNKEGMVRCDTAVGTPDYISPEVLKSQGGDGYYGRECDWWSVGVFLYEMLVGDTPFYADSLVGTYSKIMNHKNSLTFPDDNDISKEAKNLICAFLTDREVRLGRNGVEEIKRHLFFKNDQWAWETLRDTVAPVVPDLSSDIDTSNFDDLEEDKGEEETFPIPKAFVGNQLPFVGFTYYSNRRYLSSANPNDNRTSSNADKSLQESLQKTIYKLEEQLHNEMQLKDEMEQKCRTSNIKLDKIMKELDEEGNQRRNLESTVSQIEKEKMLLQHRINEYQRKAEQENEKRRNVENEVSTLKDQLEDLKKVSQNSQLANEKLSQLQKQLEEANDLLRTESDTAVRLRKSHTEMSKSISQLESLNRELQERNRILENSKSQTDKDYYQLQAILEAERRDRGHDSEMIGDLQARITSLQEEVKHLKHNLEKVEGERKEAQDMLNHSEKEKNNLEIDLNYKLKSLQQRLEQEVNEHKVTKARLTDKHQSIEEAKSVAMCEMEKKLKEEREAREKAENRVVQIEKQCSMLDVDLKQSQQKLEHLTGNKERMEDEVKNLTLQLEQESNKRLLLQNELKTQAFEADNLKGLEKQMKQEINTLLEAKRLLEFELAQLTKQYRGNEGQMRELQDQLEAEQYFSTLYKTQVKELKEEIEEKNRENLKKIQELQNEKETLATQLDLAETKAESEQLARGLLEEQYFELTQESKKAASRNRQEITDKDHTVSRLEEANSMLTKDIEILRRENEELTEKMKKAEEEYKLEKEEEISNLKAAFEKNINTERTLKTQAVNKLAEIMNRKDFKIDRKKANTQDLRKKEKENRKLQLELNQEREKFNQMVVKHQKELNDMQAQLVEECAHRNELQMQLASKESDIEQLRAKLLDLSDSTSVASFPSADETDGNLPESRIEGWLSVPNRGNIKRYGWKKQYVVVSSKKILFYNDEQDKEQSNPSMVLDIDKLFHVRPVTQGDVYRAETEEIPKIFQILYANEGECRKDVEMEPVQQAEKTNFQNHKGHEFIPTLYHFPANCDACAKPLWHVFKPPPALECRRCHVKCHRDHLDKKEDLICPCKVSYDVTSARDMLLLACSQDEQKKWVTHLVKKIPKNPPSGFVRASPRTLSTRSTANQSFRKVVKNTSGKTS

Chain of Rho kinase 2 (ROCK-II) (O75116 whole entry, canonical isoform): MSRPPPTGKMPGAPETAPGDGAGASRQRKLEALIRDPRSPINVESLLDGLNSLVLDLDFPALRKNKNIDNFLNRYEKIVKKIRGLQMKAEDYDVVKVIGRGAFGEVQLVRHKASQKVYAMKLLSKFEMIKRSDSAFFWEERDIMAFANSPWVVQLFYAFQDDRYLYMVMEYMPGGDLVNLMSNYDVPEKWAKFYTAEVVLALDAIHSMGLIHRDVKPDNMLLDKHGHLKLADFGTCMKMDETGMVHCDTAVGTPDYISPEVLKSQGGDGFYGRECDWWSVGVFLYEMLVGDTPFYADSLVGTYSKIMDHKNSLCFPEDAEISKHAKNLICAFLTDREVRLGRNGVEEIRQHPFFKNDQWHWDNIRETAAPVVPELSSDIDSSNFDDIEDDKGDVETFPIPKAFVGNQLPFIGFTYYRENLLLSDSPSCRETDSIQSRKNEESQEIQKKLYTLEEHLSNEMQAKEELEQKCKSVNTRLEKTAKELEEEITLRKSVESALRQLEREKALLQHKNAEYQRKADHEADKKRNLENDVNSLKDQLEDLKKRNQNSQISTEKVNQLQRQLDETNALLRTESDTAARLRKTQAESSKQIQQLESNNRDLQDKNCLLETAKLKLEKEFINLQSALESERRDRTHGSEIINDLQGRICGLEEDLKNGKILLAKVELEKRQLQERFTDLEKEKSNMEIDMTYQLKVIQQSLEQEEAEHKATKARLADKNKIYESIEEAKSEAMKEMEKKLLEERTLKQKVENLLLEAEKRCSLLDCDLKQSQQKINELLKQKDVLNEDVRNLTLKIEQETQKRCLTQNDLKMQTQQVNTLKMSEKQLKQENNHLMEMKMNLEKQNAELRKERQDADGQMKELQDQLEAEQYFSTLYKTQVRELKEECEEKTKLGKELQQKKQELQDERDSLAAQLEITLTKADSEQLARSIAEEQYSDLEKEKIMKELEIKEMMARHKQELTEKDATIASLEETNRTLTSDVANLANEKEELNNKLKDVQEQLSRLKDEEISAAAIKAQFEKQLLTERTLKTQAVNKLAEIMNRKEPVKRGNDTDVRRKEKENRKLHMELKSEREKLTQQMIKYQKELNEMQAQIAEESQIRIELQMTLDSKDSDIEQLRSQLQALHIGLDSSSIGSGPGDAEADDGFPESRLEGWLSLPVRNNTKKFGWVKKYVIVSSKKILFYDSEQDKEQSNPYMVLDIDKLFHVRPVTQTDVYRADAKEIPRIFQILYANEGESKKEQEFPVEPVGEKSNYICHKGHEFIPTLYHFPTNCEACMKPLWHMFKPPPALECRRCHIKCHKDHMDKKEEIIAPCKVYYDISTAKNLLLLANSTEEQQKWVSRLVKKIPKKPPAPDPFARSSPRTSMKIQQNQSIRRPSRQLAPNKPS

As to `Cc1c[nH]c2nccc(Oc3ccc(C[C@H](N)C(=O)N4CCNCC4)cc3F)c12` [Example 152, (S)-2-amino-3-(3-fluoro-4-((3-methyl-1H-pyrrolo[2,3-b]pyridin-4-yl)oxy)phenyl)-1-(piperazin-1-yl)propan-1-one], the inhibition constant (Ki) on Rho kinase 2 (ROCK-II) and at Rho kinase 1 (ROCK-I) was below 3 nM in each case.
Take `CN(C(=O)[C@@H](N)Cc1ccc(Oc2ccnc3[nH]ccc23)cc1)C1CCCCC1` [Example 101, (S)-3-(4-((1H-pyrrolo[2,3-b]pyridin-4-yl)oxy)phenyl)-2-amino-N-cyclohexyl-N-methylpropanamide]: the Ki at Rho kinase 2 (ROCK-II) and at Rho kinase 1 (ROCK-I) was 3 to 30 nM in each case.
`Cc1c[nH]c2nccc(Oc3ccc(C[C@@H](N)C(=O)NCc4ccccc4)cc3)c12` [Example 136, (R)-2-amino-N-benzyl-3-(4-((3-methyl-1H-pyrrolo[2,3-b]pyridin-4-yl)oxy)phenyl)propanamide]: the Ki on Rho kinase 2 (ROCK-II) and at Rho kinase 1 (ROCK-I) was 3 to 30 nM each time.
For the compound `N[C@@H](Cc1ccc(Oc2ccnc3[nH]ccc23)cn1)C(=O)NC1CCCCC1` [Example 227, (S)-3-(5-((1H-pyrrolo[2,3-b]pyridin-4-yl)oxy)pyridin-2-yl)-2-amino-N-cyclohexylpropanamide], the inhibition constant (Ki) at Rho kinase 2 (ROCK-II) and on Rho kinase 1 (ROCK-I) was above 30 nM in each case.
Take `Cc1c[nH]c2nccc(Oc3ccc(CC(N)C(=O)N4CCN(Cc5ccccc5)CC4)cc3F)c12` (single isomer, unassigned) [Example 132B, 2-amino-1-(4-benzylpiperazin-1-yl)-3-(3-fluoro-4-((3-methyl-1H-pyrrolo[2,3-b]pyridin-4-yl)oxy)phenyl)propan-1-one]: the Ki is below 3 nM on Rho kinase 2 (ROCK-II) and 3 to 30 nM on Rho kinase 1 (ROCK-I).
Take `Cc1c[nH]c2nccc(Oc3ccc(C[C@H](N)C(=O)N4CCN(C(=O)Cc5ccccc5)CC4)cc3F)c12` [Example 169, (S)-2-amino-3-(3-fluoro-4-((3-methyl-1H-pyrrolo[2,3-b]pyridin-4-yl)oxy)phenyl)-1-(4-(2-phenylacetyl-)piperazin-1-yl)propan-1-one]: the Ki at Rho kinase 2 (ROCK-II) and at Rho kinase 1 (ROCK-I) was below 3 nM in each case.
For the compound `N[C@@H](Cc1ccc(Oc2ccnc3[nH]ccc23)cc1)C(=O)NC1CCOCC1` [Example 99, (S)-3-(4-((1H-pyrrolo[2,3-b]pyridin-4-yl)oxy)phenyl)-2-amino-N-(tetrahydro-2H-pyran-4-yl)propanamide], the inhibition constant Ki at Rho kinase 2 (ROCK-II) and on Rho kinase 1 (ROCK-I) was 3 to 30 nM each time.
As to `N[C@H](Cc1cc(F)c(Oc2ccnc3[nH]ccc23)c(F)c1)C(=O)NC1CCCCC1` [Example 229, (R)-3-(4-((1H-pyrrolo[2,3-b]pyridin-4-yl)oxy)-3,5-difluorophenyl)-2-amino-N-cyclohexylpropanamide], the inhibitory constant (Ki) on Rho kinase 2 (ROCK-II) and on Rho kinase 1 (ROCK-I) was 3 to 30 nM in each case.
As for `CN(Cc1ccccc1)C(=O)[C@H](N)Cc1ccc(Oc2ccnc3[nH]ccc23)cc1` [Example 144, (R)-3-(4-((1H-pyrrolo[2,3-b]pyridin-4-yl)oxy)phenyl)-2-amino-N-benzyl-N-methylpropanamide], the Ki at Rho kinase 2 (ROCK-II) and at Rho kinase 1 (ROCK-I) was above 30 nM throughout.
As to `Cc1c[nH]c2nccc(Oc3ccc(C[C@H](N)C(=O)N4CCN(CC5CCN(S(C)(=O)=O)CC5)CC4)cc3F)c12` [Example 161, (S)-2-amino-3-(3-fluoro-4-((3-methyl-1H-pyrrolo[2,3-b]pyridin-4-yl)oxy)phenyl)-1-(4-((1-(methylsulfonyl)piperidin-4-yl)methyl)piperazin-1-yl)propan-1-one], the inhibitory constant (Ki) at Rho kinase 2 (ROCK-II) and at Rho kinase 1 (ROCK-I) was below 3 nM throughout.
As for `Cc1c[nH]c2nccc(Oc3ccc(C[C@H](N)C(=O)N(C)C4CCN(C)CC4)cc3F)c12` [Example 44, (S)-2-amino-3-(3-fluoro-4-((3-methyl-1H-pyrrolo[2,3-b]pyridin-4-yl)oxy)phenyl)-N-methyl-N-(1-methylpiperidin-4-yl)propanamide], the figures for the inhibition constant Ki on Rho kinase 2 (ROCK-II) and at Rho kinase 1 (ROCK-I) were below 3 nM and 3 to 30 nM, respectively.
The matching figures for `Cc1c[nH]c2nccc(Oc3ccc(C[C@H](N)C(=O)NC4CCOCC4)cc3F)c12` [Example 54, (S)-2-amino-3-(3-fluoro-4-((3-methyl-1H-pyrrolo[2,3-b]pyridin-4-yl)oxy)phenyl)-N-(tetrahydro-2H-pyran-4-yl)propanamide]: below 3 nM and below 3 nM.
Regarding `Cc1c[nH]c2nccc(Oc3ccc(C[C@@H](N)C(=O)Nc4ccccc4)cc3F)c12` [Example 149, (R)-2-amino-3-(3-fluoro-4-((3-methyl-1H-pyrrolo[2,3-b]pyridin-4-yl)oxy)phenyl)-N-phenylpropanamide], the inhibition constant Ki at Rho kinase 2 (ROCK-II) and on Rho kinase 1 (ROCK-I) was below 3 nM in each case.
Consider `CN1C[C@@H]2C[C@H]1CN2C(=O)[C@@H](N)Cc1ccc(Oc2ccnc3[nH]cc(C#N)c23)c(F)c1` [Example 223, 4-(4-((S)-2-amino-3-((1S,4S)-5-methyl-2,5-diazabicyclo[2.2.1]heptan-2-yl)-3-oxopropyl)-2-fluorophenoxy)-1H-pyrrolo[2,3-b]pyridine-3-carbonitrile], for which the Ki on Rho kinase 2 (ROCK-II) and at Rho kinase 1 (ROCK-I) was below 3 nM each time.
For `Cc1c[nH]c2nccc(Oc3ccc(C[C@H](N)C(=O)N4CC(CN(C)C)C4)cc3F)c12` [Example 48, (S)-2-amino-1-(3-((dimethylamino)methyl)azetidin-1-yl)-3-(3-fluoro-4-((3-methyl-1H-pyrrolo[2,3-b]pyridin-4-yl)oxy)phenyl)propan-1-one], the Ki on Rho kinase 2 (ROCK-II) and at Rho kinase 1 (ROCK-I) was below 3 nM each time.
`N[C@@H](Cc1ccc(Oc2ccnc3[nH]cc(Br)c23)c(F)c1)C(=O)NC1CCCCC1` [Example 186, (S)-2-amino-3-(4-((3-bromo-1H-pyrrolo[2,3-b]pyridin-4-yl)oxy)-3-fluorophenyl)-N-cyclohexylpropanamide]: the Ki at Rho kinase 2 (ROCK-II) and on Rho kinase 1 (ROCK-I) was below 3 nM throughout.
`Cc1c[nH]c2nccc(Oc3ccc(C[C@H](N)C(=O)N4CCN(Cc5csnn5)CC4)cc3F)c12` [Example 164, (S)-1-(4-((1,2,3-thiadiazol-4-yl)methyl)piperazin-1-yl)-2-amino-3-(3-fluoro-4-((3-methyl-1H-pyrrolo[2,3-b]pyridin-4-yl)oxy)phenyl)propan-1-one]: the Ki on Rho kinase 2 (ROCK-II) and on Rho kinase 1 (ROCK-I) was below 3 nM in each case.
For the compound `Cc1c[nH]c2nccc(Oc3ccc(CC(N)C(=O)N4CCN(C5CC5)CC4)cc3F)c12` (stereo not drawn) [Example 60, 2-amino-1-(4-cyclopropylpiperazin-1-yl)-3-(3-fluoro-4-((3-methyl-1H-pyrrolo[2,3-b]pyridin-4-yl)oxy)phenyl)propan-1-one], the inhibitory constant (Ki) at Rho kinase 2 (ROCK-II) and at Rho kinase 1 (ROCK-I) was below 3 nM each time.
In the case of `Cc1c[nH]c2nccc(Oc3ccc(C[C@H](N)C(=O)Nc4ccccc4)cc3)c12` [Example 137, (S)-2-amino-3-(4-((3-methyl-1H-pyrrolo[2,3-b]pyridin-4-yl)oxy)phenyl)-N-phenylpropanamide], the inhibition constant (Ki) at Rho kinase 2 (ROCK-II) and at Rho kinase 1 (ROCK-I) was below 3 nM in each case.
With `Cc1c[nH]c2nccc(Oc3ccc(C[C@H](N)C(=O)N4CCN(C)C(C)(C)C4)cc3F)c12` [Example 18, (S)-2-amino-3-(3-fluoro-4-((3-methyl-1H-pyrrolo[2,3-b]pyridin-4-yl)oxy)phenyl)-1-(3,3,4-trimethylpiperazin-1-yl)propan-1-one], the inhibitory constant (Ki) on Rho kinase 2 (ROCK-II) and at Rho kinase 1 (ROCK-I) was below 3 nM in each case.
On to `Cc1c[nH]c2nccc(Oc3ccc(C[C@H](N)C(=O)N4CCN(Cc5ccc(OCCCN(C)C)cc5)CC4)cc3F)c12` [Example 160, (S)-2-amino-1-(4-(4-(3-(dimethylamino)propoxy)benzyl)piperazin-1-yl)-3-(3-fluoro-4-((3-methyl-1H-pyrrolo[2,3-b]pyridin-4-yl)oxy)phenyl)propan-1-one], for which the Ki on Rho kinase 2 (ROCK-II) and on Rho kinase 1 (ROCK-I) was below 3 nM throughout.
As to `Cc1c[nH]c2nccc(Oc3ccc(C[C@H](N)C(=O)N4CC=C(c5ccccc5)CC4)cc3F)c12` [Example 21, (S)-2-amino-3-(3-fluoro-4-((3-methyl-1H-pyrrolo[2,3-b]pyridin-4-yl)oxy)phenyl)-1-(4-phenyl-5,6-dihydropyridin-1(2H)-yl)propan-1-one], the Ki at Rho kinase 2 (ROCK-II) and on Rho kinase 1 (ROCK-I) was below 3 nM throughout.
Regarding `N[C@@H](Cc1ccc(Oc2ccnc3[nH]ccc23)cc1)C(=O)NC1CCCCC1` [Example 111, (S)-3-(4-((1H-pyrrolo[2,3-b]pyridin-4-yl)oxy)phenyl)-2-amino-N-cyclohexylpropanamide], the inhibitory constant (Ki) on Rho kinase 2 (ROCK-II) is below 3 nM; at Rho kinase 1 (ROCK-I), 3 to 30 nM.
The like results for `Cc1c[nH]c2nccc(Oc3ccc(C[C@H](N)C(=O)N4CCN(C(=O)c5nccs5)CC4)cc3F)c12` [Example 177, (S)-2-amino-3-(3-fluoro-4-((3-methyl-1H-pyrrolo[2,3-b]pyridin-4-yl)oxy)phenyl)-1-(4-(thiazole-2-carbonyl)piperazin-1-yl)propan-1-one] were, in that order, below 3 nM and below 3 nM.
The matching figures for `Cc1c[nH]c2ncnc(Oc3ccc(C[C@H](N)C(=O)NCCCN(C)C)cc3F)c12` [Example 116, (S)-2-amino-N-(3-(dimethylamino)propyl)-3-(3-fluoro-4-((5-methyl-7H-pyrrolo[2,3-d]pyrimidin-4-yl)oxy)phenyl)propanamide]: 3 to 30 nM and 3 to 30 nM.
The like results for `Cc1c[nH]c2ncnc(Oc3ccc(C[C@H](N)C(=O)N4CCN(Cc5ccccc5)CC4)cc3F)c12` [Example 115, (S)-2-amino-1-(4-benzylpiperazin-1-yl)-3-(3-fluoro-4-((5-methyl-7H-pyrrolo[2,3-d]pyrimidin-4-yl)oxy)phenyl)propan-1-one] were, in that order, below 3 nM and below 3 nM.
On to `Cc1c[nH]c2nccc(Oc3ccc(C[C@H](N)C(=O)N4CCN(Cc5cnccn5)CC4)cc3F)c12` [Example 155, (S)-2-amino-3-(3-fluoro-4-((3-methyl-1H-pyrrolo[2,3-b]pyridin-4-yl)oxy)phenyl)-1-(4-(pyrazin-2-ylmethyl)piperazin-1-yl)propan-1-one], for which the inhibition constant Ki at Rho kinase 2 (ROCK-II) and on Rho kinase 1 (ROCK-I) was below 3 nM each time.
